From ChEMBL document CHEMBL1201862, “PubChem BioAssay data set” (2004)
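Dose response: 5 concentrations. Exposure: 48 h. Format: 96-well plates. Endpoint: linear interpolation; highest concentration if not reached. At the GI50, growth is halved.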 Active and inactive are the calls of the source. No stated cut-off is given here; in the data, active = GI50 up to about 1.1 µM and inactive = higher.

Legend:
Assay in all cases: NCI anticancer screen, dose series, 48 h
DU-145 = system: DU-145
HL-60 = system: HL-60
IGROV-1 = system: IGROV-1
KM12 = system: KM12
LOX IMVI = system: LOX IMVI
M14 = system: M14
MCF7 = system: MCF7
MDA-N = system: MDA-N
OVCAR-3 = system: OVCAR-3
RPMI-8226 = system: RPMI-8226
SF-295 = system: SF-295
SK-MEL-28 = system: SK-MEL-28
SK-MEL-2 = system: SK-MEL-2
SNB-75 = system: SNB-75
SW-620 = system: SW-620
ACHN = system: ACHN
HT-29 = system: HT-29
Hs-578T = system: Hs-578T
MOLT-4 = system: MOLT-4
SF-268 = system: SF-268

Measured: GI50

Cc1c(N/C=C(\C#N)C(=O)c2ccc(Cl)cc2)c(=O)n(-c2ccccc2)n1C
inactive: DU-145 > 100 µM | HL-60 38.7 µM | IGROV-1 96.8 µM | KM12 > 100 µM | LOX IMVI > 100 µM | M14 > 100 µM | MCF7 62.1 µM | MDA-N > 100 µM | OVCAR-3 72.1 µM | RPMI-8226 34.6 µM | SF-295 > 100 µM | SK-MEL-28 > 100 µM | SK-MEL-2 62.1 µM | SNB-75 > 100 µM | SW-620 90.4 µM

N=C(N)N/N=C/c1c(-c2cc([N+](=O)[O-])c(Cl)cc2Cl)nc2n1CCS2
inactive: ACHN 22.4 µM | DU-145 27.6 µM | HL-60 5.08 µM | HT-29 7.08 µM | Hs-578T 27.9 µM | IGROV-1 16.4 µM | KM12 4.83 µM | LOX IMVI 6.35 µM | M14 6.04 µM | MCF7 2.67 µM | MOLT-4 6.79 µM | OVCAR-3 8.04 µM | RPMI-8226 7.6 µM | SF-268 9.93 µM | SF-295 25.6 µM | SK-MEL-28 5.16 µM | SK-MEL-2 3.13 µM | SW-620 3.97 µM

COCCOC(=O)NCn1cc(-c2ccccc2)nn1
inactive: ACHN > 100 µM | DU-145 > 100 µM | HL-60 > 100 µM | HT-29 > 100 µM | IGROV-1 > 100 µM | KM12 > 100 µM | LOX IMVI > 100 µM | M14 > 100 µM | MCF7 > 100 µM | MOLT-4 > 100 µM | RPMI-8226 > 100 µM | SF-295 > 100 µM | SK-MEL-28 > 100 µM | SK-MEL-2 > 100 µM | SW-620 > 100 µM

NC(=O)NC(=O)c1cccc(C(=O)NC(N)=O)n1
inactive: ACHN > 100 µM | DU-145 > 100 µM | HL-60 > 100 µM | HT-29 > 100 µM | KM12 > 100 µM | LOX IMVI > 100 µM | M14 > 100 µM | MCF7 > 100 µM | MDA-N > 100 µM | MOLT-4 > 100 µM | OVCAR-3 > 100 µM | RPMI-8226 > 100 µM | SF-268 > 100 µM | SF-295 > 100 µM | SK-MEL-28 > 100 µM | SK-MEL-2 > 100 µM | SW-620 > 100 µM

CN(C)C(=O)N1N[C@H](c2ccccc2)[C@@H]1c1ccccc1
inactive: ACHN > 100 µM | DU-145 > 100 µM | IGROV-1 > 100 µM | KM12 > 100 µM | LOX IMVI > 100 µM | M14 > 100 µM | MCF7 > 100 µM | MDA-N > 100 µM | MOLT-4 > 100 µM | OVCAR-3 > 100 µM | RPMI-8226 > 100 µM | SF-295 72.3 µM | SK-MEL-28 > 100 µM | SK-MEL-2 > 100 µM | SNB-75 > 100 µM | SW-620 > 100 µM

NC(=O)CC1OC(=O)Cc2cc3c(c(O)c21)C(=O)c1c(O)cccc1C3=O (stereo not given)
inactive: ACHN 41.5 µM | DU-145 > 100 µM | HL-60 > 100 µM | HT-29 > 100 µM | IGROV-1 69.3 µM | LOX IMVI > 100 µM | M14 > 100 µM | MCF7 > 100 µM | MDA-N > 100 µM | MOLT-4 71.3 µM | SF-295 > 100 µM | SK-MEL-28 > 100 µM | SK-MEL-2 > 100 µM | SW-620 > 100 µM

CCOC(=O)C(NC(=O)c1ccccc1)(N1CCN(c2cc3c(cc2F)c(=O)c(C(=O)O)cn3C2CC2)CC1)C(F)(F)F (stereo not given)
inactive: ACHN 23.9 µM | DU-145 27.5 µM | HL-60 14.4 µM | Hs-578T 26.2 µM | IGROV-1 30.4 µM | KM12 16.8 µM | M14 19.6 µM | MDA-N 21.1 µM | MOLT-4 14.1 µM | OVCAR-3 23.4 µM | RPMI-8226 23.1 µM | SF-268 18.1 µM | SF-295 27 µM | SK-MEL-28 28 µM | SK-MEL-2 18.7 µM | SNB-75 24 µM | SW-620 21.5 µM

N#Cc1c2c(c(Nc3cccc(C(F)(F)F)c3)n3c1nc1ccccc13)CCCC2
inactive: ACHN 27.3 µM | DU-145 21.3 µM | HT-29 16.2 µM | KM12 81.3 µM | LOX IMVI 14.8 µM | MDA-N 15 µM | MOLT-4 15.2 µM | OVCAR-3 14.6 µM | RPMI-8226 19.4 µM | SF-268 15.2 µM | SF-295 21.8 µM | SK-MEL-28 18.2 µM | SNB-75 10.6 µM | SW-620 39.1 µM

Cn1c2ccccc2c2c(-c3ccccc3)[n+]3ccccc3nc21
inactive: ACHN 98.6 µM | DU-145 53.3 µM | HL-60 24.8 µM | HT-29 53.7 µM | Hs-578T 34.8 µM | IGROV-1 26.7 µM | KM12 17.1 µM | LOX IMVI 18.5 µM | M14 18.1 µM | MOLT-4 42.2 µM | OVCAR-3 23.3 µM | RPMI-8226 17.8 µM | SF-268 18.5 µM | SF-295 46.3 µM | SK-MEL-28 20.5 µM | SK-MEL-2 20.2 µM | SNB-75 19.5 µM | SW-620 23.2 µM

O=C1[C@@H]2C(c3ccccc3Br)=NO[C@@H]2C(=O)N1c1ccc(Cc2ccc(N3C(=O)[C@H]4C(c5ccccc5Br)=NO[C@H]4C3=O)cc2)cc1
inactive: ACHN > 100 µM | HL-60 > 100 µM | HT-29 > 100 µM | IGROV-1 > 100 µM | KM12 > 100 µM | LOX IMVI > 100 µM | M14 > 100 µM | MOLT-4 > 100 µM | OVCAR-3 > 100 µM | RPMI-8226 > 100 µM | SF-268 > 100 µM | SF-295 > 100 µM | SK-MEL-28 > 100 µM | SK-MEL-2 > 100 µM | SNB-75 77.3 µM | SW-620 > 100 µM

COC(=O)C1C=CCON2CCc3c(n(S(=O)(=O)c4ccccc4)c4ccccc34)C12 (stereo not given)
inactive: ACHN 65.3 µM | HL-60 27 µM | HT-29 43.4 µM | IGROV-1 > 55.3 µM | KM12 35.2 µM | LOX IMVI 33.3 µM | M14 44.5 µM | MOLT-4 26.9 µM | OVCAR-3 33.7 µM | RPMI-8226 14.5 µM | SF-268 > 100 µM | SF-295 59.4 µM | SK-MEL-28 > 100 µM | SK-MEL-2 > 100 µM | SNB-75 79.3 µM | SW-620 14.8 µM

Cc1cc(Cc2c(F)c(F)c(C(c3cc(C)no3)c3c(F)c(F)c(F)c(F)c3F)c(F)c2F)on1 (stereo not given)
inactive: ACHN > 100 µM | DU-145 > 100 µM | HL-60 5.13 µM | HT-29 6.08 µM | IGROV-1 > 100 µM | KM12 19.5 µM | LOX IMVI > 46.1 µM | M14 24 µM | MCF7 6.76 µM | MDA-N 3.04 µM | MOLT-4 17.1 µM | OVCAR-3 > 27.4 µM | RPMI-8226 33.5 µM | SF-268 78.3 µM | SF-295 5.41 µM | SK-MEL-28 > 38.8 µM | SK-MEL-2 9.71 µM | SNB-75 86.7 µM | SW-620 8.02 µM
